Experimental findings from PMC9315041, “Conformationally Constrained Sialyl Analogues as New Potential Binders of h‐CD22” (Chembiochem, 2022) are described below.

For assay [1], the target named is T1, h-CD22 (Siglec-2) (Homo sapiens, UniProt P20273).
T1 sequence (P20273 20-687 limits assumed): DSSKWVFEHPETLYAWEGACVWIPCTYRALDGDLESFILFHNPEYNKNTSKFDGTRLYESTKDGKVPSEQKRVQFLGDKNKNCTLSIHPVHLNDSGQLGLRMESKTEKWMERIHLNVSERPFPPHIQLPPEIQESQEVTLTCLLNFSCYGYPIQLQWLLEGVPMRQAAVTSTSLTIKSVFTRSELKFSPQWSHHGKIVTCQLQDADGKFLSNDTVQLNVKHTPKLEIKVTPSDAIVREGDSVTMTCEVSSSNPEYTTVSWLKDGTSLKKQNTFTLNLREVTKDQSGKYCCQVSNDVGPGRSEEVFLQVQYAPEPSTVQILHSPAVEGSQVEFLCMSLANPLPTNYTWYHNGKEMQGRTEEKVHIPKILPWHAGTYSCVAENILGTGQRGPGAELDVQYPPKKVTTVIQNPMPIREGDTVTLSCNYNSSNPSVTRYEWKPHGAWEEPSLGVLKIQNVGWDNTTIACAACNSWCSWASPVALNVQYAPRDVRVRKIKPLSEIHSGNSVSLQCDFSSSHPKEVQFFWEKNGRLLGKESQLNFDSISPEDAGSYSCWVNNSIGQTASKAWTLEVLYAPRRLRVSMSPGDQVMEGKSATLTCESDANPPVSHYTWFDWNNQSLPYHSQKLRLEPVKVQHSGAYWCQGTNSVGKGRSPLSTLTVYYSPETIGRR
Nature of the assay: intrinsic tryptophan fluorescence titration; STD NMR and tr-NOESY. It counts as binding. The source says:
intrinsic tryptophan fluorescence titration; STD NMR and tr-NOESY on h-CD22 (Siglec-2) | thus proving the complex formation.

The target of assay [2] is T1, h-CD22 (Siglec-2). The assay can be described thus: SPR (CD22 immobilized on protein A chip); STD NMR. It counts as binding.

The structures appear in SMILES notation.

Regarding `CC(=O)N[C@H]1[C@H]([C@H](O)[C@H](O)CO)OC(OC[C@H]2O[C@@H]3OC4=C(S[C@@H]3[C@@H](O)[C@H]2O)C(=O)N[C@H](C(=O)O)C4)(C(=O)O)C[C@@H]1O` (some centres unmarked) [compound 1, Sialyl-TnThr analogue], binding on h-CD22 (Siglec-2) [1] was put at a Kd of 2 ± 0.1 µM.
As for `CC(=O)N[C@H]1[C@H]([C@H](O)[C@H](O)CNC(=O)c2ccc(-c3ccccc3)cc2)OC(OC[C@H]2O[C@@H]3OC4=C(S[C@@H]3[C@@H](O)[C@H]2O)C(=O)N[C@H](C(=O)O)C4)(C(=O)O)C[C@@H]1O` (some centres unmarked) [compound 2, sialo-derivative 2], the Kd (in general, the constant that tells how readily two partners part at equilibrium) on h-CD22 (Siglec-2) [2] came out at 13.5 ± 2.6 µM.
